The structures appear in SMILES notation.

One assay concerns the target IDH1 R132H (Homo sapiens (Human), UniProt O75874, R132H). In words: Assays for IDH1 R132H Inhibitors (NADPH/aKG, resazurin detection). Format: biochemical. To be noted: IDH1 R132H enzyme, Table 3; read-out: R132H IC50. In short, it runs like this:
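Mutant enzyme in 150 mM NaCl, 10 mM MgCl2, 20 mM Tris pH 7.5, 0.03% BSA; compound in DMSO added to substrate mix of 8 uM NADPH and 2 mM aKG. Reaction ran 50 min at room temperature, then resazurin detection mix (30 μM) added for 5 min at room temperature.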

Another assay has as its system HT1080 cells. In words: Cellular assay for IDH1m inhibitors: inhibition of 2-HG production in HT1080 cells (LC-MS). Format: cell-based. Particulars: Homo sapiens, HT-1080, 48 hours. In a few lines:
(§1)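 HT1080 or U87MG cells seeded at 5000 cells/well overnight, then compound added (final DMSO 0.2%) and incubated 48 hours at 37 C. 2-HG in the medium quantified by LC-MS; viability checked by CellTiter-Glo luminescence at 72 hours post compound.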

Another assay relates to U87R132H (U87MG) cells. Kind of assay: Cellular assay for IDH1m inhibitors: inhibition of 2-HG production in U87MG (U87R132H) cells (LC-MS). In kind it is cell-based. To be noted: Homo sapiens, U-87 MG, 48 hours. In short, it runs like this: as §1

Sequence of IDH1 R132H (O75874 whole entry R132H): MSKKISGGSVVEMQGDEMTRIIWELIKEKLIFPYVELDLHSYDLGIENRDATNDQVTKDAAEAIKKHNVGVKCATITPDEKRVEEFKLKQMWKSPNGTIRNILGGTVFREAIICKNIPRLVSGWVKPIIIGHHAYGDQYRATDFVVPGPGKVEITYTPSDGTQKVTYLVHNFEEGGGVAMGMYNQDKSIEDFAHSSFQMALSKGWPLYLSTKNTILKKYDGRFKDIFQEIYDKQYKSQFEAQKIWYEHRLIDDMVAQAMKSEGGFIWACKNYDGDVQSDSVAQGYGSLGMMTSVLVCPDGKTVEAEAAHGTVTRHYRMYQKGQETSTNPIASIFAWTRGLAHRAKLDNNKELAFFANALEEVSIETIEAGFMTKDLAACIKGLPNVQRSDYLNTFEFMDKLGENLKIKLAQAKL

By IC50 is commonly meant the concentration that inhibits the measured activity by half. As to `CC1(C)Cc2c(C#N)c(N3CCN(C(=O)C4CC4)C(C(F)F)C3)nc(C3CC3)c2CO1` (stereo not drawn) [Compound 463, 6-(4-(cyclopropanecarbonyl)-3-(difluoromethyl)piperazin-1-yl)-8-cyclopropyl-3,3-dimethyl-3,4-dihydro-1H-pyrano[3,4-c]pyridine-5-carbonitrile], the values for the half-inhibitory concentration (IC50) at IDH1 R132H, in the assay on HT1080 cells and in the assay on U87R132H (U87MG) cells were 500 to 1000 nM, 1000 to 10000 nM and 1000 to 10000 nM, respectively.

Regarding `CC(=O)CCC(=O)N1CCN(c2nc(C3CC3)c3c(c2C#N)CC(C)(C)OC3)C[C@H]1C(C)C` [Compound 428, (R)-8-cyclopropyl-6-(3-isopropyl-4-(4-oxopentanoyl)piperazin-1-yl)-3,3-dimethyl-3,4-dihydro-1H-pyrano[3,4-c]pyridine-5-carbonitrile], the figures for the IC50 at IDH1 R132H, in the assay on HT1080 cells and in the assay with U87R132H (U87MG) cells were under 500 nM, 1000 to 10000 nM and under 500 nM, respectively.

Consider `CC(O)CC(=O)N1CCN(c2nc(C3CC3)c3c(c2C#N)CC(C)(C)OC3)C[C@H]1C1CC1` (stereo partly drawn) [Compound 442, 8-cyclopropyl-6-((3R)-3-cyclopropyl-4-(3-hydroxybutanoyl)piperazin-1-yl)-3,3-dimethyl-3,4-dihydro-1H-pyrano[3,4-c]pyridine-5-carbonitrile], for which the results for the half-maximal inhibitory concentration (IC50) at IDH1 R132H, in the assay on HT1080 cells and with U87R132H (U87MG) cells were under 500 nM, 500 to 1000 nM and 500 to 1000 nM, respectively.

`CSCC(=O)N1CCN(c2nc(C3CC3)c3c(c2C#N)CC(C)(C)OC3)C[C@H]1C(C)C` [Compound 445, (R)-8-cyclopropyl-6-(3-isopropyl-4-(2-(methylthio)acetyl)piperazin-1-yl)-3,3-dimethyl-3,4-dihydro-1H-pyrano[3,4-c]pyridine-5-carbonitrile]: the IC50 on IDH1 R132H, in the assay with HT1080 cells and in the assay with U87R132H (U87MG) cells was under 500 nM throughout.

Regarding `CC1(C)Cc2c(C#N)c(N3CCN(C(=O)C4CC4)[C@H](C4CC4)C3)nc(C3CC3)c2CO1` [Compound 461, (R)-6-(4-(cyclopropanecarbonyl)-3-cyclopropylpiperazin-1-yl)-8-cyclopropyl-3,3-dimethyl-3,4-dihydro-1H-pyrano[3,4-c]pyridine-5-carbonitrile], the IC50 on IDH1 R132H is under 500 nM; with HT1080 cells it was 500 to 1000 nM; in the assay with U87R132H (U87MG) cells it was under 500 nM.

With `C#CC(=O)N1CCc2c(C3CC3)nc(N3CCN(C(=O)CCOC)[C@H](C4CC4)C3)c(C#N)c2C1` [Compound 486, (R)-1-cyclopropyl-3-(3-cyclopropyl-4-(3-methoxypropanoyl)piperazin-1-yl)-6-propioloyl-5,6,7,8-tetrahydro-2,6-naphthyridine-4-carbonitrile], the concentration for half-maximal inhibition (IC50) on IDH1 R132H, in the assay on HT1080 cells and in the assay on U87R132H (U87MG) cells was under 500 nM each time.

Take `[2H]C([2H])([2H])C([2H])(C([2H])([2H])[2H])C1([2H])CN(c2nc(C3CC3)c3c(c2C#N)CC(C)(C)OC3)CCN1C(=O)CC(F)(F)F` (stereo in doubt) [Compound 451, (R)-8-cyclopropyl-6-(3-deuterio-3-(perdeuteriopropan-2-yl)-4-(3,3,3-trifluoropropanoyl)piperazin-1-yl)-3,3-dimethyl-3,4-dihydro-1H-pyrano[3,4-c]pyridine-5-carbonitrile]: the IC50 at IDH1 R132H was under 500 nM; in the assay on HT1080 cells, 1000 to 10000 nM; with U87R132H (U87MG) cells, 1000 to 10000 nM.

For the molecule `CNC(=O)CC(=O)N1CCN(c2nc(C3CC3)c3c(c2C#N)CC(C)(C)OC3)C[C@H]1C(C)C` [Compound 422, (R)-3-(4-(5-cyano-8-cyclopropyl-3,3-dimethyl-3,4-dihydro-1H-pyrano[3,4-c]pyridin-6-yl)-2-isopropylpiperazin-1-yl)-N-methyl-3-oxopropanamide], the figures for the IC50 on IDH1 R132H, in the assay on HT1080 cells and in the assay with U87R132H (U87MG) cells were 500 to 1000 nM, 1000 to 10000 nM and 1000 to 10000 nM, respectively.

With `[2H]C1([2H])CN(C(=O)CCOC)[C@]([2H])(C([2H])(C([2H])([2H])[2H])C([2H])([2H])[2H])CN1c1nc(C2CC2)c2c(c1C#N)CC(C)(C)OC2` [Compound 444, (R)-8-cyclopropyl-3,3-dimethyl-6-(2,2,5-trideuterio-4-(3-methoxypropanoyl)-5-(perdeuteriopropan-2-yl)piperazin-1-yl)-3,4-dihydro-1H-pyrano[3,4-c]pyridine-5-carbonitrile], the IC50 at IDH1 R132H, in the assay with HT1080 cells and with U87R132H (U87MG) cells was under 500 nM each time.

Values taken from patent publication US9662327B2 (AGIOS PHARMACEUTICALS, INC, priority 2011, dated 2017).
